This passage reports IC50 results from US9000184B2, “Cyclohexane-1,2′-naphthalene-1′,2″-imidazol compounds and their use as BACE inhibitors” (AstraZeneca AB, priority 2012, dated 2015).

Assay [1] concerns the target T1, human β-Secretase (Homo sapiens (Human), UniProt P56817). Description: TR-FRET assay. Format: biochemical. Conditions: sBACE-Fc 2.7 μg/ml, substrate 100 nM, pH 4.5, 15 minutes at RT. The protocol: The β-secretase enzyme used in the TR-FRET is prepared as follows:
(§1) The cDNA for the soluble part of the human β-Secretase (AA 1-AA 460) was cloned using the ASP2-Fc10-1-IRES-GFP-neoK mammalian expression vector. The gene was fused to the Fc domain of IgG1 (affinity tag) and stably cloned into HEK 293 cells.
(§2) The enzyme (truncated form) was diluted to 6 μg/mL (stock 1.3 mg/mL) and the TruPoint BACE1 Substrate to 200 nM (stock 120 μM) in reaction buffer (NaAcetate, chaps, triton x-100, EDTA pH4.5). Enzyme and compound in dimethylsulphoxide (final DMSO concentration 5%) was mixed and pre-incubated for 10 minutes at RT. Substrate was then added and the reaction was incubated for 15 minutes at RT. The reaction was stopped with the addition of 0.35 vol Stop solution (NaAcetate, pH 9). The fluorescence of the product was measured on a Victor II plate reader with excitation wavelengths of 340-485 nm and emission wavelengths of 590-615 nm. […] The dimethylsulphoxide control, instead of test compound, defined the 100% activity level and 0% activity was defined by wells lacking enzyme (replaced with reaction buffer) or by a saturating dose of a known inhibitor, 2-amino-6-[3-(3-methoxyphenyl)phenyl]-3,6-dimethyl-5H-pyrimidin-4-one.

Assay [2] has as its system sAPPβ release, SH-SY5Y cells. Description: sAPPβ release assay. The conditions noted are these: 17 h incubation, MSD detection. Format: cell-based. The protocol:
SH-SY5Y cells were cultured in DMEM/F-12 with Glutamax, 10% FCS and 1% non-essential amino acids and cryopreserved and stored at −140° C. at a concentration of 7.5-9.5×10^6 cells per vial. Thaw cells and seed at a conc. of around 10000 cells/well in DMEM/F-12 with Glutamax, 10% FCS and 1% non-essential amino acids to a 384-well tissue culture treated plate, […] cell susp/well. The cell plates were then incubated for 7-24 h at 37° C., 5% CO2. The cell medium was removed, followed by addition of 30 μL compound diluted in DMEM/F-12 with Glutamax, 10% FCS, 1% non-essential amino acids and 1% PeSt to a final conc. of 1% DMSO. The compounds were incubated with the cells for 17 h (overnight) at 37° C., 5% CO2. Meso Scale Discovery (MSD) plates were used for the detection of sAPPβ release. MSD sAPPβ plates were blocked in 1% BSA in Tris wash buffer (40 μL/well) for 1 h on shake at r.t. and washed 1 time in Tris wash buffer (40 μL/well). 20 μL of medium was transferred to the pre-blocked and washed MSD sAPPβ microplates, and the cell plates were further used in an ATP assay to measure cytotoxicity. The MSD plates were incubated with shaking at r.t. for 2 h and the media discarded. 10 μL detection antibody was added (1 nM) per well followed by incubation with shaking at r.t. for 2 h and then discarded. 40 μL Read Buffer was added per well and the plates were read in a SECTOR Imager.

Assay [3] has as its target T1, human β-Secretase. As to the kind of experiment: Diluted TR-FRET assay. Format: biochemical. The conditions noted are these: footnote a: diluted FRET assay, 50 times less enzyme, 6.5 h reaction time at r.t.; read-out: IC50 in TR-FRET assay (IC50 from the diluted FRET assay). How it is done: as §1, §2
Compounds with a high affinity were further tested in a diluted TR-FRET assay, conditions as described above for the TR-FRET assay, but with 50 times less enzyme and a 6.5 h long reaction time at r.t. in the dark.

T1 sequence (P56817 22-460): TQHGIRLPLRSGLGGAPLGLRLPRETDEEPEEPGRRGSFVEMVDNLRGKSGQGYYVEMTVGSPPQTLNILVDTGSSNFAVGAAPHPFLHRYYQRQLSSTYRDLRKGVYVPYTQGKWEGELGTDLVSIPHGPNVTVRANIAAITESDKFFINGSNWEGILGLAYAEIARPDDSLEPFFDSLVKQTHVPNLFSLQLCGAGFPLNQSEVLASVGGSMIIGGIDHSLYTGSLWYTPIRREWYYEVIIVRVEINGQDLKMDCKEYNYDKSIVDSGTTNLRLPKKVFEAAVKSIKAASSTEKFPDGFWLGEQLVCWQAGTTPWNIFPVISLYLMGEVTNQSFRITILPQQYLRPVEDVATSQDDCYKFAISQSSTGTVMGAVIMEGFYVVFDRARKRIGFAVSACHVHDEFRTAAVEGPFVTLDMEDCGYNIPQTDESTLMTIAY

Regarding `CC#Cc1cncc(-c2ccc3c(c2)C2(N=C(C)C(N)=N2)[C@]2(CC3)CC[C@H](OC)CC2)c1` (single isomer, unassigned; isomer 1) [8, isomer 1], the IC50 against human β-Secretase [1] amounted to 212 nM; in assay [2], 81 nM.

Turning to `COc1cc(C#N)cc(-c2ccc3c(c2)C2(N=C(C)C(N)=N2)[C@]2(CC3)CC[C@@H](OC)CC2)c1` (single isomer, unassigned; isomer 1) [6, isomer 1], the IC50 at human β-Secretase [3] was 5 nM; in assay [2] it was 1 nM.

Molecule `CO[C@H]1CC[C@@]2(CCc3ccc(-c4cc(Cl)cc(C#N)c4)cc3[C@@]23N=C(C)C(N)=N3)CC1` (single isomer, unassigned; isomer 2) [11, isomer 2] came in with a half-maximal inhibitory concentration (IC50) against human β-Secretase [1] of over 5000 nM.

With `CC1=NC2(N=C1N)c1cc(-c3cc(F)cc(F)c3)ccc1CCC21CC1` (centres unmarked) [Example 3, 7′-(3,5-Difluorophenyl)-5″-methyl-3′,4′-dihydrodispiro[cyclopropane-1,2′-naphthalene-1′,2″-imidazol]-4″-amine], the IC50 against human β-Secretase [1] turned out to be 130 nM; in assay [2] (Homo sapiens), 118 nM.

Take `CC1=NC2(N=C1N)c1cc(-c3cc(F)cc(C#N)c3)ccc1CCC21CC1` (centres unmarked) [Example 2, 3-(4″-Amino-5″-methyl-3′,4′-dihydrodispiro[cyclopropane-1,2′-naphthalene-1′,2″-imidazol]-7′-yl)-5-fluorobenzonitrile]: the concentration for half-maximal inhibition (IC50) on human β-Secretase [1] amounted to 79 nM; in assay [2] (Homo sapiens), 23 nM.

Take `CC1=NC2(N=C1N)c1cc(-c3cncc(Cl)c3)ccc1CCC21CC1` (centres unmarked) [Example 4, 7′-(5-Chloropyridin-3-yl)-5″-methyl-3′,4′-dihydrodispiro[cyclopropane-1,2′-naphthalene-1′,2″-imidazol]-4″-amine]: the IC50 in assay [2] (Homo sapiens) amounted to 11 nM.

The molecule `CO[C@H]1CC[C@]2(CCc3ccc(Br)cc3C23N=C(C)C(N)=N3)CC1` (single isomer, unassigned; isomer 2) [5, isomer 2] yielded a half-inhibitory concentration (IC50) against human β-Secretase [1] of 8920 nM.

Take `CO[C@H]1CC[C@@]2(CCc3ccc(-c4cncc(Cl)c4)cc3C23N=C(C)C(N)=N3)CC1` (single isomer, unassigned; isomer 1) [7, isomer 1]: the IC50 stood at 14 nM at human β-Secretase [3] and 2.5 nM in assay [2].

As for `CO[C@H]1CC[C@@]2(CCc3ccc(Br)cc3C23N=C(C)C(N)=N3)CC1` (single isomer, unassigned; isomer 1) [5, isomer 1], the IC50 on human β-Secretase [1] is 411 nM; in assay [2], 78 nM.

`CO[C@H]1CC[C@]2(CCc3ccc(-c4cc(Cl)cc(C#N)c4)cc3C23N=C(C)C(N)=N3)CC1` (single isomer, unassigned; isomer 1) [11, isomer 1]: the IC50 was determined as 3.6 nM on human β-Secretase [3] and 4.5 nM in assay [2].

`COc1cc(C#N)cc(-c2ccc3c(c2)C2(N=C(C)C(N)=N2)[C@]2(CC3)CC[C@H](OC)CC2)c1` (single isomer, unassigned; isomer 2) [6, isomer 2]: the IC50 on human β-Secretase [1] amounted to 587 nM; in assay [2], 80 nM.

For `CC#Cc1cncc(-c2ccc3c(c2)C2(N=C(C)C(N)=N2)[C@]2(CC3)CC[C@@H](OC)CC2)c1` (single isomer, unassigned; isomer 2) [8, isomer 2], the IC50 at human β-Secretase [1] is 19 nM; in assay [2], 2.4 nM.

Regarding `CC1=NC2(N=C1N)c1cc(-c3cc(Cl)cc(C#N)c3)ccc1CCC21CC1` (centres unmarked) [Example 9, 3-(4″-Amino-5″-methyl-3′,4′-dihydrodispiro[cyclopropane-1,2′-naphthalene-1′,2″-imidazol]-7′-yl)-5-chlorobenzonitrile], the IC50 on human β-Secretase [3] was determined as 15 nM; in assay [2] (Homo sapiens) it was 16 nM.

For the molecule `CO[C@H]1CC[C@]2(CCc3ccc(-c4cncc(Cl)c4)cc3C23N=C(C)C(N)=N3)CC1` (single isomer, unassigned; isomer 2) [7, isomer 2], the IC50 against human β-Secretase [1] was found to be 333 nM; in assay [2], 19 nM.

In the case of `COC1CCC2(CCc3ccc(-c4cc(Cl)cc(C#N)c4)cc3C23N=C(C)C(N)=N3)CC1` (single isomer, unassigned; isomer 1) [10, isomer 1], the values for the IC50 (on human β-Secretase [3]; in assay [2]) were 5.7 nM and 3.1 nM, respectively.

For `CO[C@H]1CC[C@@]2(CCc3ccc(-c4cc(Cl)cc(C#N)c4)cc3C23N=C(C)C(N)=N3)CC1` (single isomer, unassigned; isomer 2) [10, isomer 2], the values for the IC50 (against human β-Secretase [1]; in assay [2]) were 392 nM and 92 nM, respectively.
